Results published in the supplement of paper PMC10307832.

Tests used:
Experiment in all cases: relative viability (nuclei count vs DMSO), 5 days (fraction); higher = more cells survive
CUDC-101 + Decitabine = compound: C#Cc1cccc(Nc2ncnc3cc(OC)c(OCCCCCCC(=O)NO)cc23)c1 [CUDC-101] + Nc1ncn([C@H]2C[C@H](O)[C@@H](CO)O2)c(=O)n1 [Decitabine] (partner 2 µM)
In short: (§1)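 For relative viability, nuclei counts in treated wells were divided by those in vehicle wells. Lung cancer cell lines had been pin-tool dosed in 1536-well plates the day after seeding and cultured for 5 days, then fixed and stained in one step (final 0.05% Triton X-100, 1% formaldehyde, 1 ug/ml Hoechst) and imaged at 4×. Doses were one drug alone or a fixed anchor-drug dose plus five library-drug doses (not always all listed) in √10 steps, and values are duplicate-plate medians.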

[1] = compound: C1=CC=C2C(=C1)N=C(S2)C(C#N)C3=NC(=NC=C3)NCCC4=CN=CC=C4 + CS(=O)(=O)CCNCc1ccc(-c2ccc3ncnc(Nc4ccc(OCc5cccc(F)c5)c(Cl)c4)c3c2)o1 [Lapatinib] (partner 2 µM)
In short: as §1

[2] = compound: C1=CC=C2C(=C1)N=C(S2)C(C#N)C3=NC(=NC=C3)NCCC4=CN=CC=C4 + O=C(c1cc(Cc2n[nH]c(=O)c3ccccc23)ccc1F)N1CCN(C(=O)C2CC2)CC1 [Olaparib] (partner 8 µM)
In short: as §1

Vandetanib + OSI-027 = compound: COc1cc2/c(=N/c3ccc(Br)cc3F)nc[nH]c2cc1OCC1CCN(C)CC1 [Vandetanib] + COc1cccc2cc(-c3nc([C@H]4CC[C@H](C(=O)O)CC4)n4ncnc(N)c34)[nH]c12 [OSI-027] (partner 0.5 µM)
In short: as §1

Cell Line	relative viability (CUDC-101 + Decitabine; first compound 0.01 µM)	relative viability (CUDC-101 + Decitabine; first compound 0.03162 µM)	relative viability (CUDC-101 + Decitabine; first compound 0.1 µM)	relative viability (CUDC-101 + Decitabine; first compound 0.3162 µM)	relative viability (CUDC-101 + Decitabine; first compound 1 µM)	relative viability ([1]; first compound 0.005 µM)	relative viability ([1]; first compound 0.01581 µM)	relative viability ([1]; first compound 0.05 µM)	relative viability ([1]; first compound 0.1581 µM)	relative viability ([1]; first compound 0.5 µM)	relative viability ([2]; first compound 0.005 µM)	relative viability ([2]; first compound 0.01581 µM)	relative viability ([2]; first compound 0.1581 µM)	relative viability ([2]; first compound 0.5 µM)	relative viability (Vandetanib + OSI-027; first compound 0.02 µM)	relative viability (Vandetanib + OSI-027; first compound 0.06325 µM)	relative viability (Vandetanib + OSI-027; first compound 0.2 µM)	relative viability (Vandetanib + OSI-027; first compound 0.6325 µM)	relative viability (Vandetanib + OSI-027; first compound 2 µM)	relative viability ([2]; first compound 0.05 µM)
LU99A	0.824	0.823	0.9	0.831	0.657	0.704	1.02	0.886	1.17	0.976	0.247	0.272	0.265	0.232	0.267	0.314	0.267	0.264	0.317	
LXF-289	0.396	0.418	0.358	0.367	0.301	0.803	0.914	0.915	1	0.864	0.966	1.13	1.17	0.979	0.774	0.708	0.877	0.771	0.741	1.1
NCI-H23	0.317	0.321	0.346	0.307	0.543		1.16	1.12	1.22	1.14		0.33	0.303	0.282	0.513	0.559	0.573	0.613	0.746	0.276
NCI-H322M	0.65	0.686	0.625	0.651	0.517	0.545	0.487	0.592	0.687	0.504	0.755	0.746	0.78	0.677	0.573	0.551	0.608	0.49	0.422	0.779
NCI-H358	0.209	0.204	0.174	0.206	0.112	0.436	0.413	0.463	0.518	0.481	0.413	0.658	0.698	0.419	0.706	0.569	0.678	0.504	0.307	0.653
NCI-H460	0.522	0.459	0.423	0.533	0.433		1.12	1.06	1.85	0.273	0.4	0.502	0.516	0.333	0.604	0.611	0.615	0.583	0.586	0.43
NCI-H520	0.49	0.622	0.478	0.513	0.318	0.672	0.818	1.01	1.15	0.819	0.302	0.307	0.321	0.29	0.219	0.226	0.311	0.268	0.271	0.309
NCI-H596	0.902	1.03	0.988	1.18	1.02	0.921	1.11	1.07	1.23	0.937	0.599	0.59	0.632	0.643	0.751	0.674	0.665	0.726	0.74	0.608
NCI-H647	0.267	0.326	0.308	0.335	0.24		1.34	1.11	1.3	0.546	0.423	0.536	0.572	0.3	0.572	0.554	0.73	0.596	0.674	0.583
NCI-H650	0.359	0.366	0.323	0.286	0.264	0.665	0.625	0.994	1.45	0.718	0.412	0.369	0.345	0.363	0.491	0.531		0.521	0.447	0.441
NCI-H661	0.544	0.497	0.487	0.571	0.307	0.512	0.533	0.451	0.519	0.476	0.543	0.8	0.801	0.613	0.721	0.66	0.668	0.58	0.629	0.723
NCI-H727	1.19	0.906	0.944	0.989	0.695	0.857	0.821	0.813	0.83	0.795	0.734	0.622	0.746	0.679	0.533	0.551	0.536	0.545	0.446	0.806
NCI-H838	0.45	0.516	0.49	0.484	0.369	0.916	0.962	1.12	1.15	0.95	0.622	0.829	0.773	0.546	0.409	0.379	0.37	0.333	0.424	0.731
NCI-H1355	0.359	0.313	0.358	0.355	0.313	1.18	1.03	1	1.14	0.931	0.704	0.761	0.825	0.769	0.446	0.362	0.386	0.5	0.387	0.764
NCI-H1395	0.794	0.756	0.773	0.709	0.66	0.953		1.17	1.08	1.08	0.476		0.457	0.541	0.614	0.65	0.665	0.526	0.588	0.475
NCI-H1437	0.556	0.537	0.553	0.533	0.498	0.762	0.902	0.987	0.9	0.704	0.542	0.607	0.673	0.507	0.835	0.899	0.868	0.886	0.964	0.65

Cell Line	relative viability (CUDC-101 + Decitabine; first compound 0.01 µM)	relative viability (CUDC-101 + Decitabine; first compound 0.03162 µM)	relative viability (CUDC-101 + Decitabine; first compound 0.1 µM)	relative viability (CUDC-101 + Decitabine; first compound 0.3162 µM)	relative viability (CUDC-101 + Decitabine; first compound 1 µM)	relative viability ([1]; first compound 0.005 µM)	relative viability ([1]; first compound 0.01581 µM)	relative viability ([1]; first compound 0.05 µM)	relative viability ([1]; first compound 0.1581 µM)	relative viability ([1]; first compound 0.5 µM)	relative viability ([2]; first compound 0.005 µM)	relative viability ([2]; first compound 0.01581 µM)	relative viability ([2]; first compound 0.1581 µM)	relative viability ([2]; first compound 0.5 µM)	relative viability (Vandetanib + OSI-027; first compound 0.02 µM)	relative viability (Vandetanib + OSI-027; first compound 0.06325 µM)	relative viability (Vandetanib + OSI-027; first compound 0.2 µM)	relative viability (Vandetanib + OSI-027; first compound 0.6325 µM)	relative viability (Vandetanib + OSI-027; first compound 2 µM)	relative viability ([2]; first compound 0.05 µM)
NCI-H1650	0.351	0.444	0.469	0.387	0.302	0.894	0.658	0.758	0.829	0.863	0.718	0.719	0.882	0.507	0.621	0.436	0.552	0.452	0.439	0.708
NCI-H1651	0.671	0.645	0.643	0.594	0.515	0.76	0.697	1.03	1.11	0.872	0.178	0.17	0.182	0.163	0.595	0.703	0.667	0.616	0.628	0.172
NCI-H1666	0.769	0.734	0.693	0.752	0.61	0.486	0.636	0.631	0.665	0.584	0.754	0.761	0.767	0.681	0.858	0.765	0.836	0.788	0.751	0.764
NCI-H1734	0.514	0.487	0.497	0.471	0.389	1.05	1.09	1.03	1.14	1.01	0.509	0.616	0.633	0.614	0.576	0.605	0.543	0.611	0.652	0.664
NCI-H1755	0.695	0.748	0.83	0.755	0.64	0.874	1.08	1	1.17	0.78	0.914	0.994	1.06	0.943	0.688	0.649	0.757	0.689	0.672	0.881
NCI-H1792	0.561	0.437	0.602	0.553	0.424		0.881	0.936	1.52	0.661		0.709	0.38	0.215	0.761	0.715	0.784	0.751	0.63	0.427
NCI-H1793	0.388	0.493	0.467	0.431	0.435	0.748	0.647	0.668	0.828	0.792		0.931	0.995	0.804	0.302	0.25	0.238	0.292	0.274	0.781
NCI-H1915	0.262	0.267	0.28	0.248	0.23	0.681	0.975	1.01	1.14	0.835		0.266	0.283	0.292	0.599	0.575	0.616	0.648	0.569	0.249
NCI-H1944	0.409	0.434	0.431	0.428	0.363	0.89	0.847	0.746	0.977	0.819	0.358	0.432	0.41	0.619	0.398	0.433	0.408	0.396	0.382	0.361
NCI-H1975	0.398	0.451	0.389	0.391	0.374	0.554	0.91	0.831	0.908	0.62	0.658	0.866	0.913	0.475	0.719	0.728	0.77	0.683	0.612	0.78
NCI-H1993	0.62	0.548	0.602	0.586	0.488	0.652	0.779	0.824	0.747	0.809	0.903	1.06	0.986	1.06	0.521	0.573	0.557	0.637	0.552	1.18
NCI-H2009	0.416	0.372	0.415	0.438	0.351	0.899	0.892	0.977	1.11	1.02	0.667	0.669	0.438	0.684	0.643	0.6	0.687	0.644	0.59	0.664
NCI-H2023	0.222	0.248	0.188	0.212	0.193	0.793	0.85	0.793	1.2	0.711	0.508	0.543	0.541	0.447	0.375	0.34	0.429	0.37	0.41	0.562
NCI-H2085	0.642	0.552	0.634	0.568	0.551	0.83	0.737	0.763	0.891	0.761	0.765	0.765	0.778	0.794	0.797	0.795	0.735	0.673	0.559	0.738
NCI-H2087	0.245	0.313	0.256	0.251	0.237	1.05	0.898	1.03	1.14	0.966	0.385	0.562	0.759	0.433	0.524	0.526	0.581	0.614	0.513	0.509
NCI-H2126	0.564	0.572	0.597	0.567	0.519	0.75	0.718	0.721	0.873	0.685	0.771	0.945	0.978	0.75	0.694	0.661	0.64	0.627	0.648	0.887
